Results taken from ChEMBL document CHEMBL3046285, “Design and synthesis of new 1,2-diaryl-4,5,6,7-tetrahydro-1H-benzo[d] imidazoles as selective cyclooxygenase (COX-2) inhibitors” (Med Chem Res, 2012).

These molecules were tested against T1, Prostaglandin G/H synthase 1 (Ovis aries, UniProt P05979) (assay: Inhibition of Ovis aries (sheep) COX1 using arachidonic acid as substrate using cyclic naphthalene hydrazide by chemiluminescence assay).
T1 sequence (P05979 whole entry): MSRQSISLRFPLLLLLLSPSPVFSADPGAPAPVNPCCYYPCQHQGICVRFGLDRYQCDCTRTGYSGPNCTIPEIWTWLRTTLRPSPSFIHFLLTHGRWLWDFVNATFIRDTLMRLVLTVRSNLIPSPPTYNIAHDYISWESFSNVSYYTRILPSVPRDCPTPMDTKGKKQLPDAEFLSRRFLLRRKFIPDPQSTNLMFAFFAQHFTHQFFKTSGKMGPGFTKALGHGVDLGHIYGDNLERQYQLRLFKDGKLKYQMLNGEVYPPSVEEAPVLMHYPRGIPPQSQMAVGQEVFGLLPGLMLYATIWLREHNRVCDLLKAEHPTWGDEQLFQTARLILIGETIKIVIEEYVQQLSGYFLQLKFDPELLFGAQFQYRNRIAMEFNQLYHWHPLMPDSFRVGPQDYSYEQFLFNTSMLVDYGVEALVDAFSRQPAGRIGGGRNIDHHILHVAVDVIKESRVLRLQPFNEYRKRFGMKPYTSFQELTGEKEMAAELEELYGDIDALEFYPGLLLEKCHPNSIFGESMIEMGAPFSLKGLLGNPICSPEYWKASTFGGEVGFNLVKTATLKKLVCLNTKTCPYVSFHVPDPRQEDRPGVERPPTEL

SMILES | IC50
CS(=O)(=O)c1ccc(-c2nc3c(n2-c2ccccc2)CCCC3)cc1 | 56.5 µM
CS(=O)(=O)c1ccc(-c2nc3c(n2-c2ccc(F)cc2)CCCC3)cc1 | 55.7 µM
CS(=O)(=O)c1ccc(-c2nc3c(n2-c2ccc(Cl)cc2)CCCC3)cc1 | 61.6 µM

Stronger by IC50, values ahead:

IC50 | SMILES
42.2 µM | COc1ccc(-n2c(-c3ccc(S(C)(=O)=O)cc3)nc3c2CCCC3)cc1
40.1 µM | Cc1ccc(-n2c(-c3ccc(S(C)(=O)=O)cc3)nc3c2CCCC3)cc1
36.1 µM | CC(=O)Nc1ccc(-n2c(-c3ccc(S(C)(=O)=O)cc3)nc3c2CCCC3)cc1
